Assay results taken from patent US6028198A (priority 1993, dated 2000).

How the values were obtained:
[1] = design: species or system Japanese white rabbit; conditions: rabbit, in vivo; for Equivalent dose (ED50), preventing adversive circling syndrome in rabbits: po
[2] = design: species or system human (sailor volunteers); conditions: in vivo, po
[3] = mouse, in vivo
[4] = design: species or system human; conditions: in vivo
[5] = design: species or system human (volunteers); conditions: in vivo
[6] = design: species or system human (medical worker volunteers); conditions: in vivo, po
[7] = design: species or system domestic cat; conditions: in vivo; for Equivalent dose (ED50), preventing motion sickness-like syndrome in cats: cat, po
[8] = design: species or system human (volunteers); conditions: in vivo; remark: listed apart in the source
[9] = mouse, in vivo; remark: listed apart in the source
[10] = mouse, in vivo; remark: listed apart in the source
[11] = in vivo

OC(CCCN1CCCCC1)(c1ccccc1)c1ccccc1 [Diphenidol]
C/A (ratio of ED50 of diphenidol to that of the composition), adversive circling in rabbits [1]: > 115 | Equivalent dose (ED50), preventing adversive circling syndrome in rabbits [1]: > 50 mg/kg | Ineffective rate, Ship [2]: 10.0% | Significantly effective rate, Ship [2]: 66.7% | Total effective rate, Ship [2]: 76.7% | C/A (ratio of ED50), inhibiting salivary secretion in mice [3]: 13.6 | Total effective, significantly effective and ineffective rates compared with placebo [4]: significantly different from those of the placebo group | Effect on changes of electronystagmogram [5]: obvious efficacy | Nystagmus after rotation, postmedication ([5]; po): 11.2 ± 6.2 degree/s | Nystagmus during rotation, postmedication ([5]; po): 6.9 ± 3.4 degree/s | Ineffective rate, Bus [6]: 18.2% | Significantly effective rate, Bus [6]: 49.1% | Total effective rate, Bus [6]: 63.6% | Equivalent dose (ED50), preventing motion sickness-like syndrome in cats [7]: 20.18 mg/kg | C/A (ratio of ED50 of diphenidol to that of the composition), motion sickness-like syndrome in cats [7]: 91.3 | Effect on changes of electrogastrogram of body of stomach and gastric antrum [8]: obvious efficacy | Amplitude of electrogastrogram of antrum of stomach, postmedication ([8]; po): 414 ± 265 μV | Amplitude of electrogastrogram of body of stomach, postmedication ([8]; po): 396 ± 227 μV | C/A (ratio of ED50), mydriatic effect in mice [9]: 10.5 | C/A (ratio of ED50), potentiating sodium pentobarbital in mice [10]: 6.9 | Incidence of somnolence [11]: 18.7%

CN1[C@@H]2C[C@@H](OC(=O)[C@H](CO)c3ccccc3)C[C@H]1[C@@H]1O[C@@H]12 [Scopolamine]
B/A (ratio of ED50 of scopolamine to that of the composition), adversive circling in rabbits [1]: 0.30 | Equivalent dose (ED50), preventing adversive circling syndrome in rabbits [1]: 0.129 mg/kg | B/A (ratio of ED50), inhibiting salivary secretion in mice [3]: 0.13 | Equivalent dose (ED50), preventing motion sickness-like syndrome in cats [7]: 0.059 mg/kg | B/A (ratio of ED50 of scopolamine to that of the composition), motion sickness-like syndrome in cats [7]: 0.30 | B/A (ratio of ED50), mydriatic effect in mice [9]: 0.072 | B/A (ratio of ED50), potentiating sodium pentobarbital in mice [10]: 0.24
